Experimental data: US20150148235A1, “HERBICIDE-RESISTANT SUNFLOWER PLANTS WITH MULTIPLE HERBICIDE RESISTANT ALLELES OF AHASL1 AND METHODS OF USE” (NIDERA S.A., priority 2013, published 2015)
Several values for one entry are separate records, joined by “and”; a condition that tells them apart may be missing. Equal values may be shown once. Marks after values point to notes of the source that are not given here.

System: sunflower lines (WT, A122T/A122T, A122T/P197L, P197L/P197L)
Experiment: Greenhouse whole-plant response to metsulfuron methyl, Example 5
Type: in vivo, Helianthus annuus
Conditions: 14 DAT
Description: Seeds were sown in Petri dishes and, after germination, plantlets were transplanted into 10 cm pots containing potting media consisting of equal parts of vermiculite, soil, and sand. Plants were grown in the greenhouse under natural light conditions supplemented with 400 W sodium halide lamps to provide a 16 hr daylength. Day/night temperatures were 25 and 20° C., respectively. At the V2-V4 stage (Schneiter & Miller, 1981) 20 plants of each genotype were randomly assigned to each treatment consisting of three metsulfuron methyl doses (0 or no treatment, 5 g ai/ha or a 1× rate, and 10 g ai/ha or a 2× rate). A zero-time biomass determination was also conducted. The experiment was arranged as a randomized complete block design (RCBD) with a full factorial arrangement of treatments and 20 replications (sunflower line×treatment).
For the zero-time dried weight determination, ten plants of each genotype were cut at the cotyledonal node on the day of herbicide application and dried at 60° C. for 48 hr. The rest of the plants were maintained for 14 days after herbicide treatment (DAT) and their height, Phytotoxicity Index (PI) and above ground dry biomass were recorded. Height was determined as the distance between the cotyledonal node and the apex of each plant. The above ground biomass data for each line was converted to biomass accumulation after application by subtracting the appropriate average zero-time biomass from each sample. Height and dry biomass were converted to a percentage of the untreated control for each line to allow direct comparisons between groups.
The data was subjected to an ANOVA and the means were compared by an LSD test.

[1] = BTSu-R1 (P197L/P197L), 1X (5 g ai./ha)
[2] = BTSu-R1 (P197L/P197L), 2X (10 g ai./ha)
[3] = GM40 (A122T/A122T), 1X (5 g ai./ha)
[4] = GM40 (A122T/A122T), 2X (10 g ai./ha)
[5] = GM1606 (A122T/A122T), 1X (5 g ai./ha)
[6] = GM1606 (A122T/A122T), 2X (10 g ai./ha)
[7] = L4 (A122T/A122T), 1X (5 g ai./ha)
[8] = L4 (A122T/A122T), 2X (10 g ai./ha)
[9] = cmsGM40xBTSu-R1 (A122T/P197L), 1X (5 g ai./ha)
[10] = cmsGM40xBTSu-R1 (A122T/P197L), 2X (10 g ai./ha)
[11] = cmsGM40xL4 (A122T/A122T), 1X (5 g ai./ha)
[12] = cmsGM40xL4 (A122T/A122T), 2X (10 g ai./ha)

Question: For `COC(=O)c1ccccc1S(=O)(=O)NC(=O)Nc1nc(C)nc(OC)n1` [metsulfuron], which “Dry Matter accumulation (DMA)” value (B770 (WT), 1X (5 g ai./ha)) is on record?
Answer: 28.43^b %

Question: And the “Phytotoxicity Index (PI) (scale 0-9)” value (B770 (WT), 1X (5 g ai./ha))?
Answer: 8.50^bc

Question: What about the “Dry Matter accumulation (DMA)” value (B770 (WT), 2X (10 g ai./ha)) of the same molecule?
Answer: 28.77^b %

Question: And the “Mean Height Reduction (PH)” value (B770 (WT), 2X (10 g ai./ha))?
Answer: 18.20^a %

Question: And the “Phytotoxicity Index (PI) (scale 0-9)” value (B770 (WT), 2X (10 g ai./ha))?
Answer: 9.00^d

Question: And the “Dry Matter accumulation (DMA)” value [1]?
Answer: 88% and 88.1% and 88.10^d %

Question: What about the “Mean Height Reduction (PH)” value [1] of the same molecule?
Answer: 79.01^b %

Question: And the “Dry Matter accumulation (DMA)” value [2]?
Answer: 77% and 76.69^c %

Question: And the “Mean Height Reduction (PH)” value [2]?
Answer: 80.85^c %

Question: What about the “Dry Matter accumulation (DMA)” value [3] of the same molecule?
Answer: 25.73^ab %

Question: And the “Mean Height Reduction (PH)” value [3]?
Answer: 21.39^a %

Question: What about the “Phytotoxicity Index (PI) (scale 0-9)” value [3] of the same molecule?
Answer: 9.00^d

Question: And the “Dry Matter accumulation (DMA)” value [4]?
Answer: 20.69^a %

Question: And the “Mean Height Reduction (PH)” value [4]?
Answer: 21.17^a %

Question: And the “Phytotoxicity Index (PI) (scale 0-9)” value [4]?
Answer: 9.00^d

Question: And the “Dry Matter accumulation (DMA)” value [5]?
Answer: 30.39^b %

Question: And the “Mean Height Reduction (PH)” value [5]?
Answer: 21.55^a %

Question: And the “Phytotoxicity Index (PI) (scale 0-9)” value [5]?
Answer: 8.70^d

Question: And the “Dry Matter accumulation (DMA)” value [6]?
Answer: 20.45^a %

Question: And the “Mean Height Reduction (PH)” value [6]?
Answer: 21.70^a %

Question: And the “Phytotoxicity Index (PI) (scale 0-9)” value [6]?
Answer: 9.00^d

Question: What about the “Dry Matter accumulation (DMA)” value [7] of the same molecule?
Answer: 25.40^ab %

Question: What about the “Mean Height Reduction (PH)” value [7] of the same molecule?
Answer: 19.47^a %

Question: And the “Phytotoxicity Index (PI) (scale 0-9)” value [7]?
Answer: 8.25^b

Question: What about the “Dry Matter accumulation (DMA)” value [8] of the same molecule?
Answer: 18.80^a %

Question: And the “Mean Height Reduction (PH)” value [8]?
Answer: 18.73^a %

Question: What about the “Phytotoxicity Index (PI) (scale 0-9)” value [8] of the same molecule?
Answer: 8.5^c

Question: What about the “Dry Matter accumulation (DMA)” value [9] of the same molecule?
Answer: 74.4% and 74.36^c %

Question: What about the “Mean Height Reduction (PH)” value [9] of the same molecule?
Answer: 77.04^b %

Question: And the “Phytotoxicity Index (PI) (scale 0-9)” value [9]?
Answer: 0.00^a

Question: What about the “Dry Matter accumulation (DMA)” value [10] of the same molecule?
Answer: 72.66^c %

Question: What about the “Mean Height Reduction (PH)” value [10] of the same molecule?
Answer: 62% and 61.99^b %

Question: And the “Dry Matter accumulation (DMA)” value [11]?
Answer: 19.90^a %

Question: What about the “Mean Height Reduction (PH)” value [11] of the same molecule?
Answer: 22.45^a %

Question: What about the “Phytotoxicity Index (PI) (scale 0-9)” value [11] of the same molecule?
Answer: 8.67 ^d

Question: And the “Dry Matter accumulation (DMA)” value [12]?
Answer: 18.23^a %

Question: What about the “Mean Height Reduction (PH)” value [12] of the same molecule?
Answer: 20.56^a %

Question: What about the “Phytotoxicity Index (PI) (scale 0-9)” value [12] of the same molecule?
Answer: 8.82^cd
